What was measured:
[1] = In-house drug-excipient compatibility / storage stability of bupropion hydrochloride; type: physicochemical; details: for degradation of active drug in drug-excipient mixtures: 50° C./75% RH and 40° C./75% RH
Experimental: In order to study the compatibility of various excipients used in the proposed invention with bupropion hydrochloride, various drug-excipient mixtures were prepared. The each excipient amount relative to drug varied from 1:1 to 1:10. […] As predicted with the active drug, it has been observed during their analysis at various time intervals by liquid chromatography that most of the excipients studied are causing degradation of the active drug with a result of two distinct degradation peaks, in which all cellulose based excipients considered to be interacting uniquely with the pure drug compared to non-cellulose based excipients. […] The above changes were more pronounced in samples studied under open conditions compared to closed condition samples. […] Such degradation could be due to impurities like peroxide, heavy metals and bleaching agents present in such materials. Even though such impurities are present within acceptable limits, the moisture content carried in them should have acted as solvent to aggravate such reactions. […] The package component seems to play a vital role for stabilizing the dosage form: high-density polyethylene (HDPE) containers with additional thickness/weight are preferred apart from maintaining sufficient quantity of adsorbent added to the packaging system to minimize moisture and oxygen/odor levels.

[2] = crystalline solid; cited from earlier work

## CC(NC(C)(C)C)C(=O)c1cccc(Cl)c1.Cl (racemic) [Bupropion hydrochloride, (±)-1-(3-chlorophenyl)-2-[(1,1-dimethylethyl)amino]-1-propanone hydrochloride]
[1]; in-house studies, normal storage conditions, without excipients
  stability of the salt form alone: stable in normal storage conditions
[1]; mixtures with Kollidon VA64, Kollidon SR, methylcellulose, colloidal silicon dioxide, magnesium stearate, enteric coating materials
  degradation of active drug in drug-excipient mixtures: minimum amount or no change
[1]; mixtures with hydroxypropyl cellulose, polyethylene oxide and sodium carboxymethyl cellulose, 1:1 to 1:10, liquid chromatography
  degradation of active drug in drug-excipient mixtures: rapid degradation
[2]
  water solubility: water soluble
